What follows are compounds tested against human SGLT1 (Homo sapiens (Human), UniProt P13866) (assay: SGLT1 inhibitory activity: 14C-AMG uptake into CHO-K1 cell line stably expressing human SGLT1). Conditions: 14C-AMG uptake, CHO-K1 cells expressing human SGLT1.
Assay type: cell-based
Outline: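 Human SGLT1 was stably expressed in CHO-K1 cells. Cells were first held 20 min in sodium-free buffer, then exposed to compound in Na(+)/BSA buffer with tracer and AMG (2 mM in the added solution).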

Sequence of human SGLT1 (P13866 whole entry): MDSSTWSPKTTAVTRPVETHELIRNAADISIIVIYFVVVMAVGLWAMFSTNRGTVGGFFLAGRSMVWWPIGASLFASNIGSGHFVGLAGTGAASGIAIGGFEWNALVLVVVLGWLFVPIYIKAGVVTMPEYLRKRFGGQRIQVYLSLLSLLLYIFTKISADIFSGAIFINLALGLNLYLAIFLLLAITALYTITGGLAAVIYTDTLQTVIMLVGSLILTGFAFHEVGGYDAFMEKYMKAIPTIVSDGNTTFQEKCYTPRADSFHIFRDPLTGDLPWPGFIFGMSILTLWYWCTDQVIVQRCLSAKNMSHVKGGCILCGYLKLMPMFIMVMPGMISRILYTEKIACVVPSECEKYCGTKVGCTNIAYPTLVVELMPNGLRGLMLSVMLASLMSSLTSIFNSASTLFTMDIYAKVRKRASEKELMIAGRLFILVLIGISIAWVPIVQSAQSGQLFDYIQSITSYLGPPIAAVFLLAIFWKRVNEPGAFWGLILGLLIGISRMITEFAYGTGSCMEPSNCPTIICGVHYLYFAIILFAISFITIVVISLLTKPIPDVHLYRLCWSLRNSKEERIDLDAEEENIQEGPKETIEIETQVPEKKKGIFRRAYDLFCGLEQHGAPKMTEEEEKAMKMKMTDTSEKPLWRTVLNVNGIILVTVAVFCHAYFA

| SMILES | IC50 |
| --- | --- |
| CCCc1cccc(-c2cc(NC(=O)[C@H]3CNC(=O)C3)nn2-c2ccc(OC)cc2)c1 [Example 121] | 11 nM |
| O=C1C[C@@H](C(=O)Nc2cc(-c3cccc(OC(F)(F)F)c3)n(CCc3ccccc3)n2)CN1 [Example 110] | 85 nM |
| CCCc1cccc(-c2cc(NC(=O)[C@H]3CNC(=O)C3)nn2-c2cccc(OCC(=O)O)c2)c1 [Example 124] | 170 nM |
| Cc1ccccc1-c1cc(NC(=O)[C@H]2CNC(=O)C2)nn1-c1ccccc1 [Example 56] | 14300 nM |
| Cc1ccccc1-n1nc(NC(=O)[C@H]2CNC(=O)[C@@H]2C)cc1-c1cccc(OCC(F)(F)F)c1 [Example 227] | 2.1 nM |
| Cc1cccc(-c2cc(NC(=O)[C@H]3CNC(=O)C3)nn2-c2ccccc2)c1 [Example 57] | 230 nM |
| CCCc1cccc(-c2cc(NC(=O)[C@H]3CNC(=O)C3)nn2-c2cccc(OC)c2)c1 [Example 123] | 5 nM |
| C[C@H]1C(=O)NC[C@@H]1C(=O)Nc1cc(-c2cccc(OC(F)(F)F)c2)n(-c2ccccc2F)n1 [Example 166] | 2.9 nM |
| CCC(F)(F)c1cccc(-c2cc(NC(=O)[C@H]3CNC(=O)[C@@H]3C)nn2-c2ccccc2Cl)c1 [Example 208] | 1.3 nM |
| O=C1C[C@@H](C(=O)Nc2cc(-c3cccc(O)c3)n(-c3ccccc3)n2)CN1 [Example 118] | 9300 nM |
| CC(C)(O)c1cccc(-c2cc(NC(=O)[C@H]3CNC(=O)C3)nn2-c2ccccc2)c1 [Example 80] | 220 nM |
| CCCc1cc(-c2cc(NC(=O)[C@H]3CNC(=O)C3)nn2-c2ccccc2)ccc1F [Example 50] | 22 nM |
| CCCc1cccc(-c2cc(NC(=O)[C@H]3CNC(=O)C3)nn2CCC2CCCCC2)c1 [Example 113] | 12 nM |
| CCCc1cccc(-c2cc(NC(=O)[C@@H]3CNC(=O)N3C)nn2-c2ccccc2)c1 [Example 125] | 17 nM |
| O=C1C[C@@H](C(=O)Nc2cc(-c3cccc(OCC(F)(F)F)c3)n(-c3ccc(F)cc3)n2)CN1 [Example 211] | 17 nM |
| O=C1C[C@@H](C(=O)Nc2cc(-c3cccc(C(F)(F)F)c3)n(-c3ccc(F)cc3)n2)CN1 [Example 204] | 18 nM |
| CCCc1cccc(-c2cc(NC(=O)[C@@H]3CNC(=O)C3)nn2-c2ccc(Cl)cc2)c1 [Example 37] | 16 nM |
| CCC(F)(F)c1cccc(-c2cc(NC(=O)[C@H]3CNC(=O)C3)nn2-c2cccc(Cl)c2)c1 [Example 139] | 1.7 nM |
| CC(C)(C)c1cccc(-c2cc(NC(=O)[C@@H]3CNC(=O)C3)nn2-c2ccccc2)c1 [Example 26] | 3.5 nM |
| CC(F)(F)c1cccc(-c2cc(NC(=O)[C@H]3CNC(=O)C3)nn2-c2ccccc2)c1 [Example 161] | 22 nM |
| CC(C)(C)c1cccc(-c2cc(NC(=O)[C@H]3CNC(=O)C3)nn2C2CCCCCC2)c1 [Example 84] | 7.2 nM |
| CCCc1cccc(-c2cc(NC(=O)[C@@H]3CNC(=O)C3)nn2-c2ccccc2)c1 [Example 23] | 7.4 nM |

Same assay, conditions: 14C-AMG uptake, CHO-K1 cells stably expressing human SGLT1

| SMILES | IC50 |
| --- | --- |
| C[C@@H](OCc1cccc(-c2cc(NC(=O)[C@H]3CNC(=O)N3)nn2-c2ccc(Cl)cc2)c1)C(F)(F)F [Example 590] | 13 nM |
| CC(C)Oc1cccc(-n2nc(NC(=O)[C@@H]3CNC(=O)C3)cc2-c2cccc(CO[C@H](C)C(F)(F)F)c2)c1F [Example 486] | 6.5 nM |
| O=C1C[C@H](C(=O)Nc2cc(-c3cccc(COCC(F)(F)F)c3)n(-c3ccccc3F)n2)CN1 [Example 471] | 15 nM |
| CCCc1cccc(-c2cc(NC(=O)[C@@H]3CNC(=O)C3)nn2-c2ccc(F)c(OCCO)c2)c1 [Example 415] | 13 nM |
| C[C@@H](OCc1cccc(-c2cc(NC(=O)C3CCC(=O)NC3)nn2-c2ccccc2)c1)C(F)(F)F (some centres unmarked) [Example 565] | 11 nM |
| CCC(CC)OCc1cccc(-c2cc(NC(=O)[C@@H]3CNC(=O)C3)nn2-c2ccccc2)c1 [Example 332] | 22 nM |
| CCCO[C@H](C)c1cccc(-c2cc(NC(=O)[C@@H]3CNC(=O)C3)nn2-c2ccccc2)c1 [Example 395] | 13 nM |
| O=C1C[C@H](C(=O)Nc2cc(-c3cc(Cl)cc(COCC(F)(F)F)c3)n(-c3cccc(F)c3)n2)CN1 [Example 588] | 40 nM |
| O=C1C[C@H](C(=O)Nc2cc(-c3cccc(OCCCC(F)(F)F)c3)n(-c3ccccc3)n2)CN1 [Example 273] | 27 nM |
| C[C@H]1C(=O)NC[C@@H]1C(=O)Nc1cc(-c2cccc(COCC(F)(F)F)c2)n(-c2ccccc2)n1 [Example 559] | 7.7 nM |
| CC(C)Oc1cccc(-c2cc(NC(=O)[C@H]3CNC(=O)C3)nn2-c2ccccc2)c1 [Example 321] | 22 nM |
| COCCOc1cccc(-n2nc(NC(=O)[C@@H]3CNC(=O)C3)cc2-c2cccc(CO[C@H](C)C(F)(F)F)c2)c1F [Example 487] | 23 nM |
| CCCc1cccc(-c2cc(NC(=O)[C@@H]3CNC(=O)C3)nn2-c2cccc(OC(F)(F)F)c2)c1 [Example 400] | 15 nM |
| COc1cccc(-n2nc(NC(=O)[C@@H]3CNC(=O)C3)cc2-c2cccc(CO[C@H](C)C(F)(F)F)c2)c1F [Example 484] | 4.2 nM |
| CCCc1cccc(-c2cc(NC(=O)[C@@H]3CNC(=O)C3)nn2-c2cccc(OC3CCC3)c2)c1 [Example 412] | 10.9 nM |
| COCCOc1cc(-n2nc(NC(=O)[C@@H]3CNC(=O)C3)cc2-c2cccc(CO[C@H](C)C(F)(F)F)c2)ccc1F [Example 456] | 3.4 nM |
| CC(C)(C)COc1cccc(-c2cc(NC(=O)[C@H]3CNC(=O)C3)nn2-c2ccccc2)c1 [Example 289] | 4.5 nM |
| CCCc1cccc(-c2cc(NC(=O)[C@H]3CNC(=O)N3CC(F)(F)F)nn2-c2ccccc2)c1 [Example 385] | 7 nM |

| SMILES | IC50 |
| --- | --- |
| CCOCc1cccc(-c2cc(NC(=O)[C@@H]3CNC(=O)C3)nn2-c2ccccc2)c1 [Example 283] | 110 nM |
| CCCc1cccc(-c2cc(NC(=O)[C@@H]3CNC(=O)C3)nn2-c2ccccc2OC)c1 [Example 376] | 31 nM |
| CCOc1cccc(-n2nc(NC(=O)[C@@H]3CNC(=O)C3)cc2-c2cccc(CO[C@H](C)C(F)(F)F)c2)c1F [Example 485] | 4.1 nM |
| C[C@@H](OCc1cc(F)cc(-c2cc(NC(=O)[C@@H]3CNC(=O)C3)nn2-c2ccccc2F)c1)C(F)(F)F [Example 237, (S)-5-oxopyrrolidine-3-carboxylic acid{1-(2-fluorophenyl)-5-[3-fluoro-5-((R)-2,2,2-trifluoro-1-methylethoxymethyl)phenyl]-1H-pyrazol-3-yl}amide] | 3.85 nM |
| O=C(Nc1cc(-c2cccc(COCC(F)(F)F)c2)n(-c2ccccc2)n1)C1CNC(=O)C12CC2 (single isomer, unassigned) [Example 250, 4-oxo-5-azabispiro[2.4]heptane-7-carboxylic acid{1-phenyl-5-[3-(2,2,2-trifluoroethoxymethyl)phenyl]-1H-pyrazol-3-yl}amide] | 3.4 nM |
| CCCc1cccc(-c2cc(NC(=O)[C@@H]3CNC(=O)C3)nn2-c2ccc(OC)cc2)c1 [Example 362] | 30 nM |
| O=C1C[C@H](C(=O)Nc2cc(-c3cc(F)cc(COC(C(F)(F)F)C(F)(F)F)c3)n(-c3ccc(F)cc3)n2)CN1 [Example 573] | 13 nM |
| CC(C)Oc1cccc(-c2cc(NC(=O)[C@@H]3CNC(=O)C3)nn2-c2ccccc2)c1 [Example 301] | 63 nM |
| C[C@@H](OCc1cc(F)cc(-c2cc(NC(=O)[C@@H]3CNC(=O)C3)nn2-c2ccc(F)cc2)c1)C(F)(F)F [Example 239, (S)-5-oxopyrrolidine-3-carboxylic acid{1-(4-fluorophenyl)-5-[3-fluoro-5-((R)-2,2,2-trifluoro-1-methylethoxymethyl)phenyl]-1H-pyrazol-3-yl}amide] | 7 nM |
| CCC(C)(C)Oc1cccc(-c2cc(NC(=O)[C@@H]3CNC(=O)C3)nn2-c2ccccc2)c1 [Example 291] | 5.1 nM |
| CC(C)Oc1cccc(-n2nc(NC(=O)[C@@H]3CNC(=O)C3)cc2-c2cccc(CO[C@H](C)C(F)(F)F)c2)c1 [Example 454] | 2 nM |
| CC(C)(OCc1cccc(-c2cc(NC(=O)[C@@H]3CNC(=O)C3)nn2-c2ccc(F)cc2)c1)C(F)(F)F [Example 574] | 17 nM |
| CC(C)Oc1cccc(-n2nc(NC(=O)[C@@H]3CNC(=O)C3)cc2-c2cccc(OC(F)(F)F)c2)c1 [Example 445] | 6.7 nM |
| C[C@@H](OCc1cccc(-c2cc(NC(=O)[C@H]3CNC(=O)N3)nn2-c2ccccc2)c1)C(F)(F)F [Example 365] | 18 nM |
| CCCc1cccc(-c2cc(NC(=O)C3CCS(=O)(=O)C3)nn2-c2ccccc2)c1 (racemic) [Example 320] | 3 nM |
| CCCc1cccc(-c2cc(NC(=O)[C@@H]3CNC(=O)C3)nn2-c2ccccc2C)c1 [Example 261] | 3.77 nM |
| C[C@@H](OCc1cccc(-c2cc(NC(=O)[C@@H]3CNC(=O)C3)nn2-c2cccc(O)c2)c1)C(F)(F)F [Example 441] | 9 nM |

Same assay, conditions: CHO-K1, at 0.1 uM

| SMILES | inhibition at 0.1 µM |
| --- | --- |
| O=C1CC[C@H](C(=O)Nc2cc(-c3cccc(COCC(F)(F)F)c3)n(-c3ccccc3)n2)N1 [Example 548] | 3% |
| CC(C)NC(=O)c1cccc(-c2cc(NC(=O)[C@@H]3CNC(=O)C3)nn2-c2ccccc2)c1 [Example 431] | 21% |
| CC(C)(C)OC(=O)c1cccc(-c2cc(NC(=O)[C@@H]3CNC(=O)C3)nn2-c2ccccc2)c1 [Example 413] | 48% |
| CCCc1cccc(-c2cc(NC(=O)C3CC[S+]([O-])CC3)nn2-c2ccccc2)c1 (centres unmarked) [Example 317] | 40% |
| C[C@@H]1C[C@H](n2nc(NC(=O)[C@H]3CNC(=O)[C@@H]3C)cc2-c2cccc(OC(F)(F)F)c2)C[C@H](C)O1 [Example 221] | 15% |

Same assay, conditions: CHO-K1, at 0.3 uM

| SMILES | inhibition at 0.3 µM |
| --- | --- |
| CC1C(=O)NC(O)C1C(=O)Nc1cc(-c2cccc(OC(F)(F)F)c2)n(-c2ccccc2)n1 (racemic) [Example 254] | 49% |

Same assay, conditions: CHO-K1, at 1 uM

| SMILES | inhibition at 1 µM |
| --- | --- |
| CCCc1cc(C(=O)O)cc(-c2cc(NC(=O)[C@H]3CNC(=O)C3)nn2-c2ccccc2)c1 [Example 145] | 43% |

Same assay, conditions: at 0.3 uM

| SMILES | human SGLT1 % Inhibition |
| --- | --- |
| CCCc1cccc(-c2cc(NC(=O)C3CCCC(=O)NC3)nn2-c2ccccc2)c1 (centres unmarked) [Example 256] | 3% |

Reference: patent US8846746B2, “Pyrazole compound and pharmaceutical use thereof” (Japan Tobacco Inc., priority 2011, dated 2014)
